Article PMC6173406, “Design and evaluation of selective butyrylcholinesterase inhibitors based on Cinchona alkaloid scaffold” (PLoS ONE, 2018)
Like-named read-outs stand apart in the source and are kept apart here.

How the values were obtained:
human AChE = biological target: T1, human AChE (Homo sapiens, UniProt P22303); assay: Reversible inhibition of human AChE, Ellman method with ATCh, Hunter-Downs analysis; format: biochemical; parameters: key to AChE type of inhibition: c, n and m stands for competitive, noncompetitive and mixed type of inhibition; c, n and m stands for competitive, noncompetitive and mixed type of inhibition; c, n and m stands for competitive, noncompetitive and mixed type of inhibition; settings: for Ki: enzyme-inhibitor dissociation constant ± standard error, ATCh 0.050–0.50 mM, pH 7.4, 25 °C; for AChE Ks: enzyme-substrate (ATCh) dissociation constant derived from the inhibition kinetics with the compound; for AChE type of inhibition: symbol in brackets after Ki
T1 construct: gift of Dr. F. Nachon (Département de Toxicologie, Armed Forces Biomedical Research Institute, France)
T1 sequence (P22303 32-614): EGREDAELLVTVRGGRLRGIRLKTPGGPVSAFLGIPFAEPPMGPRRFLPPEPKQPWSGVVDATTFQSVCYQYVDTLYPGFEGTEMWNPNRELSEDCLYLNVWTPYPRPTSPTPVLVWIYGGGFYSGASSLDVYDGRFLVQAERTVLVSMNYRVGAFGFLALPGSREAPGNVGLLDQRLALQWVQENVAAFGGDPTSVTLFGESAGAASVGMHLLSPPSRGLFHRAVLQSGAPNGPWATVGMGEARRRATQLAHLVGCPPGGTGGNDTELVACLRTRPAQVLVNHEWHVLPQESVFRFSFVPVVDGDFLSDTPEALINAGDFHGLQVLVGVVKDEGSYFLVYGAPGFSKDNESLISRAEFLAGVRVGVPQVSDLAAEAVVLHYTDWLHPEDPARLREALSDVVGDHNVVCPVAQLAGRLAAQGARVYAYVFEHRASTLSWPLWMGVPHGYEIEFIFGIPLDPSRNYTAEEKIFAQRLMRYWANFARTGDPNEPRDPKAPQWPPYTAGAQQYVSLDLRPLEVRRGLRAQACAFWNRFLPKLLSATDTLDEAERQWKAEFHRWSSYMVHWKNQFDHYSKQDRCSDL
Description: (§1) Purified human BChE and recombinant human AChE were kindly provided by Dr. F. Nachon (Département de Toxicologie, Armed Forces Biomedical Research Institute, France). The concentration of enzymes (BChE: 5.6 μM; AChE: 0.20 μM) was determined as described previously. The concentrated stocks of enzymes were diluted in a phosphate sodium buffer 0.1 M (pH 7.4) containing 0.1% BSA.
(§2) Enzyme activities were measured spectrophotometrically by Ellman method at 412 nm using 0.30 mM DTNB as thiol reagent and ATCh (0.050–0.50 mM) as substrate in 0.1 M phosphate buffer, pH 7.4 [29, 30]. For the inhibition, the reaction mixture also contained cinchonidines or cinchonines (final concentrations 0.020–200 μM, depending on compound). In the case of compounds CD-(pCl) and CN-(pCl), the final content of DMSO was the same in enzyme activity measurement and in inhibition measurements, up to 0.32%. No side interactions of tested compounds with ATCh or DTNB were detected. Measurements were done at 25 °C on a Tecan Infinite M200Pro plate reader (Austria).
(§3) The reversible inhibition of BChE and AChE by cinchonines and cinchonidines was measured by determining the decrease of enzyme activity towards ATCh (0.050–0.50 mM) in their presence. The activities of the enzymes were measured at different substrate concentrations ([S]) in the absence (v0) and presence (vi) of given cinchonines and cinchonidines concentration ([I]) selected to inhibit the enzymes for 20–80%. At least three concentrations of inhibitors for each substrate concentration were used in at least two experiments. The apparent dissociation inhibition constant (Ki,app) was calculated using the Hunter-Downs equation and the linear regression analysis: Ki,app=vi/v0−vi⋅[I]=K(I)+K(I)/K(S)⋅[S] where y-intercept determines the enzyme-inhibitor dissociation constants (K(I)), while x-intercept determines the enzyme-substrate dissociation constant, K(S). The equation was used with the assumption that the substrate, due to relatively low substrate concentrations used in experiments, binds only to the catalytic site, while inhibitor can bind to both sites catalytic and peripheral site. In other words, if the inhibitor competes with substrate for binding to the catalytic site of the enzyme, Ki,app proportionally depend on the substrate concentration. […] The curve means that the inhibitor binds not only to the catalytic or peripheral site but also to intermediates of Michaelis type of the enzyme-substrate complex.

human BChE = biological target: T2, human BChE (Homo sapiens, UniProt P06276); assay: Reversible inhibition of human BChE, Ellman method with ATCh, Hunter-Downs analysis; format: biochemical; parameters: key to BChE type of inhibition: c, n and m stands for competitive, noncompetitive and mixed type of inhibition; c, n and m stands for competitive, noncompetitive and mixed type of inhibition; c, n and m stands for competitive, noncompetitive and mixed type of inhibition; settings: for BChE Ks: enzyme-substrate (ATCh) dissociation constant derived from the inhibition kinetics with the compound; for Ki(AChE)/ Ki (BChE): inhibition selectivity, ratio of Ki constants for AChE and BChE; for BChE inhibition potency compared to CD-Met: fold more potent than CD-Met
T2 construct: gift of Dr. F. Nachon (Département de Toxicologie, Armed Forces Biomedical Research Institute, France)
T2 sequence (P06276 29-602): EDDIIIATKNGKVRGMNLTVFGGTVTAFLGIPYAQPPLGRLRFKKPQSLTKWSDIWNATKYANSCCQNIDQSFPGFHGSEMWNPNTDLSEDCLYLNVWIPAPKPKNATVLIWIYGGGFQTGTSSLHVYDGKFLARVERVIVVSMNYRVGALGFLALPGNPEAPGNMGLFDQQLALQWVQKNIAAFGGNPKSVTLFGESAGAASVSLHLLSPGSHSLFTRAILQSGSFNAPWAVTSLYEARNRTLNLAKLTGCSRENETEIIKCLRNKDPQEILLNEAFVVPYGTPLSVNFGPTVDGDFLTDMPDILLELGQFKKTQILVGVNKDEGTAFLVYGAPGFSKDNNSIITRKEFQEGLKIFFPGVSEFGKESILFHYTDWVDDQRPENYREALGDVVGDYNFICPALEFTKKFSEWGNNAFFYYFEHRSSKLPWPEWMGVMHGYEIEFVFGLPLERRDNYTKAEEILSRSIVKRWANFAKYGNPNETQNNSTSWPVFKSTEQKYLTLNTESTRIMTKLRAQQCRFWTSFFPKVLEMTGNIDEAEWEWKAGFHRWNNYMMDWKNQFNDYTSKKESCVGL
Description: as §1, §2, §3

[1] = enzyme-inhibitor dissociation constant ± standard error, ATCh 0.050–0.50 mM, pH 7.4, 25 °C
[2] = substrate concentrations higher than 0.35 mM, deviation from linearity in Hunter-Downs plot

| SMILES | Ki (human AChE) [µM] | AChE Ks (human AChE) [mM] | AChE type of inhibition (human AChE) | Ki (human BChE; [1]) [µM] | BChE Ks (human BChE) [mM] | Ki(AChE)/ Ki (BChE) (human BChE) | BChE type of inhibition (human BChE; symbol in brackets after Ki) | BChE type of inhibition (human BChE; [2]) | Ki (human BChE) [µM] | AChE affinity lower than for the highest-affinity compounds (human AChE; compared to CD-(mNO2) and CD-(mCH3)) [times] | BChE inhibition potency compared to CD-Met (human BChE) |
| --- | --- | --- | --- | --- | --- | --- | --- | --- | --- | --- | --- |
| C=CC1C[N+]2(Cc3cccc(Cl)c3)CCC1CC2C(O)c1ccnc2ccccc12 (stereo not drawn) [CD-(mCl), N-(3-chlorobenzyl) cinchonidinium chloride] | 23 ± 1 | 0.74 ± 0.08 | c | 0.24 ± 0.01 | 0.53 ± 0.05 | 95 | m |  |  |  |  |
| C=CC1C[N+]2(Cc3ccc(C)cc3)CCC1CC2C(O)c1ccnc2ccccc12 (stereo not drawn) [CN-(pCH3), N-(4-methylbenzyl) cinchoninium bromide] | 42 ± 2 | 2.0 ± 0.2 | c | 3.1 ± 0.3 | 0.33 ± 0.05 | 13 | c |  |  |  |  |
| C=CC1C[N+]2(Cc3ccc(Cl)cc3)CCC1CC2C(O)c1ccnc2ccccc12 (stereo not drawn) [CN-(pCl)] | 40 ± 4 |  | n | 6.2 ± 0.8 | 0.49 ± 0.12 | 6.4 | m | mixed inhibition |  |  |  |
| C=CC1C[N+]2(Cc3ccccc3)CCC1CC2C(O)c1ccnc2ccccc12 (stereo not drawn) [CD-Bzl] | 15 ± 2 | 0.78 ± 0.3 | m | 0.075 ± 0.007 | 0.27 ± 0.03 | 200 | c |  | ≤ 0.1 |  |  |
| C=CC1C[N+]2(Cc3ccc(C)cc3)CCC1CC2C(O)c1ccnc2ccccc12 (stereo not drawn) [CD-(pCH3)] | 16 ± 1 | 1.3 ± 0.2 | c | 0.17 ± 0.02 | 0.38 ± 0.06 | 99 | m | mixed inhibition |  |  |  |
| C=CC1C[N+]2(Cc3ccccc3)CCC1CC2C(O)c1ccnc2ccccc12 (stereo not drawn) [CN-Bzl] | 121 ± 12 | 1.1 ± 0.4 | m | 2.9 ± 0.3 | 0.29 ± 0.04 | 42 | c |  |  | ~50 |  |
| C=C[C@H]1C[N@@]2CC[C@H]1C[C@@H]2[C@@H](O)c1ccnc2ccccc12 [CN, cinchonine, reference compound] | 34 ± 1 | 0.25 ± 0.01 | c | 4.9 ± 1.4 | 0.50 ± 0.27 |  | c |  |  |  |  |
| C=CC1C[N+]2(Cc3cccc([N+](=O)[O-])c3)CCC1CC2C(O)c1ccnc2ccccc12 (stereo not drawn) [CD-(mNO2), N-(3-nitrobenzyl) cinchonidinium bromide] | 2.5 ± 0.2 | 1.0 ± 0.2 | c | 4.7 ± 0.4 | 0.62 ± 0.1 |  | m |  |  |  | only five times higher |
| C=CC1C[N+]2(Cc3ccc([N+](=O)[O-])cc3)CCC1CC2C(O)c1ccnc2ccccc12 (stereo not drawn) [CD-(pNO2)] | 36 ± 2 |  | n | 6 ± 0.5 | 0.38 ± 0.05 | 5.9 | c |  |  |  | only five times higher |
| C=CC1C[N+]2(Cc3cccc(Br)c3)CCC1CC2C(O)c1ccnc2ccccc12 (stereo not drawn) [CN-(mBr)] | 39 ± 2 | 0.73 ± 0.08 | m | 2.3 ± 0.2 | 0.48 ± 0.09 | 17 | m |  |  |  |  |
| C=CC1C[N+]2(Cc3ccc([N+](=O)[O-])cc3)CCC1CC2C(O)c1ccnc2ccccc12 (stereo not drawn) [CN-(pNO2)] | 51 ± 2 |  | n | 7.6 ± 0.7 | 0.32 ± 0.04 | 6.6 | c |  |  |  |  |
